Data taken from publication PMC5867211 (Archives of toxicology, 2017).
“Also recorded” adds a separate entry of the source. Read-outs that look alike come from different tables or passages of the source.

How the values were obtained:
Hep3B cells [1] = test: Metabolism-induced toxicity on DataChip/MetaChip; conditions: for CC50: Homo sapiens, Hep3B; for Change of toxicity in All Mix vs. parent compound: All Mix vs. no enzyme, 3D Hep3B on chip
humans = conditions: previously categorized; ref Xu et al. 2008; cited from earlier work
in vitro = conditions: human
[2] = read-out: 1000* Human Cmax; 1000-fold in vivo human Cmax; cited from earlier work
[3] = system: Hep3B human hepatoma cell line; test: 2D cell viability; format: cell-based; conditions: 72 h, read-out: IC50, 2D cultured Hep3B cells in 96-well plates
Hep3B cells [4] = system: Hep3B cells

Structure (SMILES)	DILI category (humans)	Cmax [2]	IC50 ([3]; Homo sapiens, Hep3B)	other results
CC(Cc1ccc(O)cc1)NCC(O)c1cc(O)cc(O)c1 (stereo not shown) [Fenoterol]	P2	0.6 nM	300 µM	CC50 (Hep3B cells [1]; read-out: IC50, 3D cultured Hep3B cells on the Data/MetaChip, All Mix): 1200 µM; CC50 (Hep3B cells [1]; read-out: IC50, 3D cultured Hep3B cells on the Data/MetaChip, HLM): 1200 µM; CC50 (Hep3B cells [1]; read-out: IC50, 3D cultured Hep3B cells on the Data/MetaChip, No Enzyme): 1200 µM; IC50 (in vitro): 290 ± 140 µM
CC(=O)Nc1ccc(O)cc1 [Acetaminophen]	P1	–	300 µM	Change of toxicity in All Mix vs. parent compound (Hep3B cells [1]): metabolism-induced toxicity; Change of toxicity in P450 Mix vs. parent compound (Hep3B cells [4]): metabolism-induced toxicity
O=c1n(CCCN2CCN(c3cccc(Cl)c3)CC2)nc2ccccn12 [Trazodone]	P2	–	–	–
CCCOc1ccc2[nH]c(NC(=O)OC)nc2c1 [Oxybendazole]	O1	30 nM	–	Change of toxicity in All Mix vs. parent compound (Hep3B cells [1]): augmented toxicity; IC50 ([3]; 2D monolayer, no enzyme, MTT): 24 ± 18 µM
Cc1ccc(N(CC2=NCCN2)c2cccc(O)c2)cc1 [Phentolamine]	–	–	48 ± 9 µM	–
Cc1nc2n(c(=O)c1CCN1CCC(c3noc4cc(F)ccc34)CC1)CCCC2 [Risperidone]	P2	–	–	–
CN(C)CCCN1c2ccccc2CCc2ccccc21 [Imipramine]	P2	–	5 ± 2 µM	–
CC(CCc1ccccc1)NCC(O)c1ccc(O)c(C(N)=O)c1 (stereo not shown) [Labetalol]	P2	–	150 ± 34 µM	–
O=C1CC2(CCCC2)CC(=O)N1CCCCN1CCN(c2ncccn2)CC1 [Buspirone]	N1	–	170 ± 74 µM	–
CCc1oc2ccccc2c1C(=O)c1cc(Br)c(O)c(Br)c1 [Benzbromarone]	P1	–	58 ± 22 µM	–
CC1=C(CC(=O)O)c2cc(F)ccc2/C1=C\c1ccc([S+](C)[O-])cc1 (stereo not shown) [Sulindac]	P2	–	300 µM	Change of toxicity in All Mix vs. parent compound (Hep3B cells [1]): statistically less toxicity; also recorded: increased IC50
Nc1ccc(/N=N/c2ccccc2)c(N)n1 [Phenazopyridine]	P2	124 nM	55 ± 13 µM	–
C[C@@](Cc1ccc(O)c(O)c1)(NN)C(=O)O [Carbidopa]	N1	660 nM	46 ± 28 µM	Change of toxicity in All Mix vs. parent compound (Hep3B cells [1]): augmented toxicity; Change of toxicity in P450 Mix vs. parent compound (Hep3B cells [4]): activated
CCCNC(=O)NS(=O)(=O)c1ccc(Cl)cc1 [Chlorpropamide]	P2	123000 nM	300 µM	–
Cc1cccc(Nc2ccccc2C(=O)O)c1C [Mefenamic acid]	P2	–	260 ± 74 µM	Change of toxicity in All Mix vs. parent compound (Hep3B cells [1]): statistically less toxicity
CN(C)CCCN1c2ccccc2Sc2ccccc21 [Promazine]	N3	490 nM	21 ± 3 µM	–
O=C(O)Cc1ccccc1Nc1c(Cl)cccc1Cl [Diclofenac]	P2	–	120 ± 51 µM	–
C[C@]12CC[C@@H]3c4ccc(O)cc4CC[C@H]3[C@@H]1CC[C@@H]2O [Estradiol]	N3	0.1 nM	53 ± 20 µM	–
COc1ccccc1Oc1c(NS(=O)(=O)c2ccc(C(C)(C)C)cc2)nc(-c2ncccn2)nc1OCCO [Bosentan]	P1	–	55 ± 20 µM	–
CC(C)C(=O)Nc1ccc([N+](=O)[O-])c(C(F)(F)F)c1 [Flutamide]	P2	–	45 ± 18 µM	Change of toxicity in All Mix vs. parent compound (Hep3B cells [1]): statistically less toxicity
CNCCC(Oc1ccc(C(F)(F)F)cc1)c1ccccc1 (stereo not shown) [Fluoxetine]	N3	97 nM	–	–
